Test results taken from publication PMC12845261, “Design, Synthesis, and Biological Evaluation of N-Acyl-Hydrazone-Linked Quinazolinone Derivatives with Antioxidant, Antimicrobial, and Anticancer Potential” (Pharmaceuticals, 2025).
≈ marks a conversion by molar mass, not a printed value.

Columns and labels:
P. aeruginosa ATCC 27853 [1] = assay: Quantitative antimicrobial activity, serial binary microdilution (MIC, IC50); format: cell-based; details: Pseudomonas aeruginosa, ATCC27853, reference drug
Experimental: (§1) For the evaluation of antimicrobial activity, the following reference strains were used: S. aureus ATCC 25923, E. faecalis ATCC 29212, E. coli ATCC 25922, P. aeruginosa ATCC 27853 and C. albicans ATCC 10231.
(§2) Quantitative analysis was performed using the method of serial binary microdilutions in liquid medium (Tryptone Soy Broth for bacteria and Sabouraud Broth for yeasts) in plates with 96 wells. Stock solutions of 10 mg/mL were made in DMSO, and the range of concentrations tested for each compound was 5000–0.16 μg/mL. Simultaneously, the DMSO control was carried out under the same working conditions. Each well was inoculated with 10 μL of microbial suspension, adjusted to a density of 1.5 × 10^8 CFU/mL prepared from 18 to 24 h cultures. After 24 h of incubation at 37 °C, microbial growth and multiplication were evaluated both macroscopically and spectrophotometrically at 620 nm to establish the MIC values. […] Blanks were made for each sample concentration, and the formula was applied: Microbial viability(%)=Asample−Ablank/Astrain control−Asterility control·100

S. aureus ATCC 25923 [2] = assay: as above; format: cell-based; details: Staphylococcus aureus, ATCC25923; S. aureus ATCC 25923; reference drug
Experimental: as §1, §2

E. coli ATCC 25922 [3] = assay: as above; format: cell-based; details: Escherichia coli, ATCC25922; E. coli ATCC 25922; reference drug
Experimental: as §1, §2

E. faecalis ATCC 29212 [4] = assay: as above; format: cell-based; details: Enterococcus faecalis, ATCC29212, reference drug
Experimental: as §1, §2

P. aeruginosa ATCC 27853 [5] = assay: Microbial adhesion, crystal violet (MICMA); format: cell-based; details: reference drug
Experimental: as §1
(§3) Following quantitative analysis of antimicrobial activity, microbial adhesion was evaluated after methanol fixation and violet crystal staining (0.1%). The absorbance of the adhered biomass colored with violet crystal and resuspended in 33% acetic acid was measured at 490 nm.

S. aureus ATCC 25923 [6] = assay: Microbial adhesion, crystal violet (MICMA); format: cell-based; details: reference drug
Experimental: as §1, §3

E. coli ATCC 25922 [7] = assay: Microbial adhesion, crystal violet (MICMA); format: cell-based; details: reference drug
Experimental: as §1, §3

E. faecalis ATCC 29212 [8] = assay: Microbial adhesion, crystal violet (MICMA); format: cell-based; details: reference drug
Experimental: as §1, §3

P. aeruginosa ATCC 27853 [9] = assay: Qualitative antimicrobial activity, adapted Kirby-Bauer (inhibition zone); format: cell-based; details: reference drug at 100 μg/mL
Experimental: (§4) For the evaluation of antimicrobial activity, the following reference strains were used: S. aureus ATCC 25923, E. faecalis ATCC 29212, E. coli ATCC 25922, P. aeruginosa ATCC 27853 and C. albicans ATCC 10231. The microbial suspensions were prepared at a density of 1.5 × 10^8 CFU/mL, corresponding to the McFarland 0.5 nephelometric standard. These suspensions were obtained from 18–24 h cultures developed on solid media (Mueller-Hinton for bacteria, Sabouraud for yeast). Antimicrobial activity was assessed using an adapted Kirby-Bauer method according to CLSI (Clinical and Laboratory Standards Institute). In addition to the 10 mg/mL stock solutions prepared in DMSO for each compound, a solvent control was used. Each stock solution (10 μL) was distributed in spot on the medium inoculated with the interest strain. After measuring the diameter of the inhibition zone (IZD) around the spot (mm), the results were expressed as the mean ± standard deviation (SD) for each compound tested in duplicate.

S. aureus ATCC 25923 [10] = assay: as above; format: cell-based; details: reference drug at 100 μg/mL
Experimental: as §4

E. coli ATCC 25922 [11] = assay: as above; format: cell-based; details: reference drug at 100 μg/mL
Experimental: as §4

E. faecalis ATCC 29212 [12] = assay: as above; format: cell-based; details: reference drug at 100 μg/mL
Experimental: as §4

P. aeruginosa ATCC 27853 [13] = assay: Microbicidal activity (MMC); format: cell-based; details: reference drug
Experimental: (§5) For the evaluation of antimicrobial activity, the following reference strains were used: S. aureus ATCC 25923, E. faecalis ATCC 29212, E. coli ATCC 25922, P. aeruginosa ATCC 27853 and C. albicans ATCC 10231. To determine the MMCs, 5 μL of culture was taken from each well and distributed on solid medium. The plates were incubated for 20–24 h at 37 °C. The lowest concentration at which no microbial growth was observed was considered MMC.

S. aureus ATCC 25923 [14] = assay: Microbicidal activity (MMC); format: cell-based; details: reference drug
Experimental: as §5

E. coli ATCC 25922 [15] = assay: Microbicidal activity (MMC); format: cell-based; details: reference drug
Experimental: as §5

E. faecalis ATCC 29212 [16] = assay: Microbicidal activity (MMC); format: cell-based; details: reference drug
Experimental: as §5

[17] = system: HT-29 (human colorectal adenocarcinoma); assay: Cytotoxicity, MTT assay; format: cell-based; details: 24 h, tested range 3.125 to 50 µM
Experimental: (§6) For the cytotoxicity screening of the N-acyl-hydrazone derivatives, three cell lines were employed: HT-29 (human colorectal adenocarcinoma), A431 (human epidermoid carcinoma), and VERO (non-tumoral African green monkey kidney epithelial cells). All cell lines were obtained from the American Type Culture Collection (ATCC, Manassas, VA, USA), and maintained in appropriate culture media as follows: HT-29 and A431 cells were cultured in Dulbecco’s Modified Eagle Medium (DMEM), while VERO cells were cultured in Minimum Essential Medium (MEM). Both culture media were supplemented with 10% fetal bovine serum (FBS) and 1% penicillin-streptomycin mix, to formulate the complete culture medium. All cell lines were incubated at 37 °C in a humidified atmosphere containing 5% CO2. […] For the cytotoxicity screening, cells were seeded into sterile 96-well plates at an initial density of 1 × 10^4 cells/well and allowed to adhere for 24 h. Subsequently, cells were treated with increasing concentrations (3.125 to 50 µM) of compounds 1a–1f and 2 for 24 h. In parallel, 5-fluorouracil (5-FU, Sigma Aldrich, St. Louis, MO, USA) was included as a reference drug and tested over the same concentration range under identical experimental conditions. […] For the experimental control, culture medium was refreshed at the time of treatment application. […] Louis, MO, USA). Briefly, the culture media were discarded from each well and replaced with a fresh solution of MTT (1 mg/mL). Plates were incubated for 4 h at 37 °C, and the resulting formazan crystals were solubilized with isopropanol. The absorbance was measured at 550 nm using the FlexStation III multimodal reader (Molecular Devices, San Jose, CA, USA). All experiments were performed in triplicate and repeated in three independent assays. Cell viability was calculated as a percentage relative to the untreated control using the formula Cell Viability (%) = (Abs treated/Abs control) × 100. Data were processed using GraphPad Prism 6.0 and presented as mean ± standard deviation (SD). Statistical analysis was performed using one-way analysis of variance (ANOVA) followed by Dunnett’s post hoc test for comparison with the untreated control group.

[18] = system: VERO (non-tumoral African green monkey kidney epithelial cells); assay: Cytotoxicity, MTT assay; format: cell-based; details: 24 h
Experimental: as §6

C. albicans ATCC 10231 [19] = assay: Quantitative antimicrobial activity, serial binary microdilution (MIC, IC50); format: cell-based; details: Candida albicans, ATCC10231, reference drug
Experimental: as §1, §2

C. albicans ATCC 10231 [20] = assay: Microbial adhesion, crystal violet (MICMA); format: cell-based; details: reference drug
Experimental: as §1, §3

C. albicans ATCC 10231 [21] = assay: Qualitative antimicrobial activity, adapted Kirby-Bauer (inhibition zone); format: cell-based; details: reference drug at 140 μg/mL
Experimental: as §4

C. albicans ATCC 10231 [22] = assay: Microbicidal activity (MMC); format: cell-based; details: reference drug
Experimental: as §5

[23] = Total antioxidant capacity (TAC), DPPH method; details: 30 min, 517 nm, compound stock 1 mg/mL in methanol, reference ascorbic acid TAC = 100%
Experimental: The total antioxidant capacity (TAC) was evaluated using diphenyl-1-picrylhydrazyl free radical (DPPH) method. The TAC value was determined in relation to the antioxidant capacity of the reference (ascorbic acid, TAC = 100%). […] The maximum value was recorded for 1c (~45%), followed by 1f and 1a (~43%), while the minimum for 1e (~19%).
In this study, the TAC values were obtained using the most-known DPPH method, in which the intense violet colour of the free radical solution is decreasing. Stock solutions of compounds 1a–1f and 2 were prepared in absolute methanol at a concentration of 1 mg/mL. A stock solution of 2,2-diphenyl-1-picrylhydrazyl free radical was obtained in the same solvent, at a concentration of 2 × 10^−4 M. To 1.8 mL of DPPH solution was added 0.2 mL of each solution of the compounds 1a–1f and 2 and the mixture was left in the dark for 30 min, followed by measurements of the absorbance at 517 nm. The following equation was used to calculate TAC: TAC%=Abs0 min−Abs30 min/Abs0min·100 where Abs0 min refers to the initial absorbance of the DPPH free radical solution, and Abs 30 min refers to the absorbance of the solution of DPPH and the added compound after 30 min. Ascorbic acid was used as a reference.

SMILES: O=C(O)c1cn(C2CC2)c2cc(N3CCNCC3)c(F)cc2c1=O [Ciprofloxacin, ciprofloxacin, reference compound]
- MIC (P. aeruginosa ATCC 27853 [1]): 0.39 µg/mL (≈ 1.18 µM)
- MIC (S. aureus ATCC 25923 [2]): 0.78 µg/mL (≈ 2.35 µM)
- MIC (E. coli ATCC 25922 [3]): 0.2 µg/mL (≈ 0.604 µM)
- MIC (E. faecalis ATCC 29212 [4]): 0.78 µg/mL (≈ 2.35 µM)
- MICMA (P. aeruginosa ATCC 27853 [5]): 0.39 µg/mL
- MICMA (S. aureus ATCC 25923 [6]): 0.39 µg/mL
- MICMA (E. coli ATCC 25922 [7]): <0.10 µg/mL
- MICMA (E. faecalis ATCC 29212 [8]): 0.78 µg/mL
- IZD (100 μg/mL, mm) (P. aeruginosa ATCC 27853 [9]): 15.33 ± 0.58 mm
- IZD (100 μg/mL, mm) (S. aureus ATCC 25923 [10]): 17.33 ± 0.58 mm
- IZD (100 μg/mL, mm) (E. coli ATCC 25922 [11]): 34.00 ± 2.00 mm
- IZD (100 μg/mL, mm) (E. faecalis ATCC 29212 [12]): 8.33 ± 0.58 mm
- MMC (P. aeruginosa ATCC 27853 [13]): 0.39 µg/mL
- MMC (S. aureus ATCC 25923 [14]): 1.56 µg/mL
- MMC (E. coli ATCC 25922 [15]): 0.78 µg/mL
- MMC (E. faecalis ATCC 29212 [16]): 6.25 µg/mL

SMILES: O=c1[nH]cc(F)c(=O)[nH]1 [Compound 5-FU, 5-fluorouracil, reference compound]
- IC50 [17]: not reached within the tested concentration range
- Maximum reduction in viability ([18]; 50 µM): approximately 25%
- IC50 ([18]; tested range 3.125 to 50 µM): not reached within the tested range

SMILES: CC(=O)N1CCN(c2ccc(OCC3COC(Cn4ccnc4)(c4ccc(Cl)cc4Cl)O3)cc2)CC1 (stereo not drawn) [Ketoconazole, ketoconazole, reference compound]
- MIC (C. albicans ATCC 10231 [19]): 8.75 µg/mL (≈ 16.5 µM)
- MICMA (C. albicans ATCC 10231 [20]): 0.27 µg/mL
- IZD (140 μg/mL, mm) (C. albicans ATCC 10231 [21]): 6.5 ± 0.71 mm
- MMC (C. albicans ATCC 10231 [22]): 35 µg/mL

SMILES: O=C1O[C@H]([C@@H](O)CO)C(O)=C1O [ascorbic acid, reference compound]
- TAC (%) [23]: 100%
